Source: patent publication US12077503B2, “Substituted cyclic amides and their use as herbicides” (FMC CORPORATION, priority 2015, dated 2024)

How the values were obtained:
Assay type in all cases: in vivo
[1] = test system: wheat (Triticum aestivum); experiment: Test A postemergence; details: Triticum aestivum, post-emergence, 240 h, 125 g ai/ha, postemergence, visual injury rating after approximately 10 d; read-out: Wheat plant response rating (0 to 100 scale, 0 no effect, 100 complete control)
Outline: (§1)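 Ratings of 0 (no effect) to 100 (complete control) come from visual comparison with untreated controls roughly 10 d after treatment. Test chemicals, formulated in a non-phytotoxic solvent mixture with surfactant, were applied either as a preemergence directed soil spray on seeded soil or postemergence to one- to two-leaf plants 2 to 10 cm tall.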

[2] = test system: blackgrass (Alopecurus myosuroides); experiment: Test A postemergence; details: Alopecurus myosuroides, post-emergence, 240 h, 125 g ai/ha, postemergence, visual injury rating after approximately 10 d; read-out: Blackgrass plant response rating (0 to 100 scale, 0 no effect, 100 complete control)
Outline: as §1

Kochia (Kochia scoparia) = experiment: Test A postemergence; details: Bassia scoparia, post-emergence, 240 h, 125 g ai/ha, postemergence, visual injury rating after approximately 10 d; read-out: Kochia plant response rating (0 to 100 scale, 0 no effect, 100 complete control)
Outline: as §1

corn (Zea mays) = experiment: Test A postemergence; details: Zea mays, post-emergence, 240 h, 125 g ai/ha, postemergence, visual injury rating after approximately 10 d; read-out: Corn plant response rating (0 to 100 scale, 0 no effect, 100 complete control)
Outline: as §1

[3] = test system: ryegrass, Italian (Italian ryegrass, Lolium multiflorum); experiment: Test A postemergence; details: Lolium multiflorum, post-emergence, 240 h, 125 g ai/ha, postemergence, visual injury rating after approximately 10 d; read-out: Ryegrass, Italian plant response rating (0 to 100 scale, 0 no effect, 100 complete control)
Outline: as §1

[4] = test system: Galium (catchweed bedstraw, Galium aparine); experiment: Test A postemergence; details: Galium, post-emergence, 240 h, 125 g ai/ha, postemergence, visual injury rating after approximately 10 d; read-out: Galium plant response rating (0 to 100 scale, 0 no effect, 100 complete control)
Outline: as §1

[5] = test system: ragweed (common ragweed, Ambrosia elatior); experiment: Test A postemergence; details: Ambrosia artemisiifolia, post-emergence, 240 h, 125 g ai/ha, postemergence, visual injury rating after approximately 10 d; read-out: Ragweed plant response rating (0 to 100 scale, 0 no effect, 100 complete control)
Outline: as §1

[6] = test system: barnyardgrass (Echinochloa crus-galli); experiment: Test A postemergence; details: Echinochloa crus-galli, post-emergence, 240 h, 125 g ai/ha, postemergence, visual injury rating after approximately 10 d; read-out: Barnyardgrass plant response rating (0 to 100 scale, 0 no effect, 100 complete control)
Outline: as §1

[7] = test system: pigweed (Amaranthus retroflexus); experiment: Test A postemergence; details: Amaranthus retroflexus, post-emergence, 240 h, 125 g ai/ha, postemergence, visual injury rating after approximately 10 d; read-out: Pigweed plant response rating (0 to 100 scale, 0 no effect, 100 complete control)
Outline: as §1

[8] = test system: giant foxtail (Setaria faberii); experiment: Test A postemergence; details: Setaria faberi, post-emergence, 240 h, 125 g ai/ha, postemergence, visual injury rating after approximately 10 d; read-out: Foxtail, Giant plant response rating (0 to 100 scale, 0 no effect, 100 complete control)
Outline: as §1

[9] = test system: barnyardgrass (Echinochloa crus-galli); experiment: Test A preemergence; details: Echinochloa crus-galli, pre-emergence, 240 h; for pest or weed control at 125 g/ha: 125 g ai/ha, preemergence, 0 to 100 scale where 0 is no effect and 100 is complete control, read-out: Barnyardgrass plant response rating; for pest or weed control at 500 g/ha: 500 g ai/ha, Preemergence, visual injury vs untreated controls after approximately 10 d, read-out: Barnyardgrass plant response rating (0 to 100 scale where 0 is no effect and 100 is complete control)
Outline: as §1

[10] = test system: sedge, umbrella (small-flower umbrella sedge, Cyperus difformis); experiment: Test B flooded paddy test; details: Cyperus difformis, Flood, 250 g ai/ha; scale of 0 to 100 where 0 is no effect and 100 is complete control; read-out: Sedge, Umbrella plant response rating
Outline: (§2)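 Visual ratings (0 none to 100 complete control) are relative to untreated plants, taken 13–15 d after treatment in a greenhouse. Test material went straight into floodwater standing 3 cm above the soil, kept constant, on plants at the 2-leaf stage.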

[11] = test system: ducksalad (Heteranthera limosa); experiment: Test B flooded paddy test; details: Heteranthera limosa, Flood, 250 g ai/ha; scale of 0 to 100 where 0 is no effect and 100 is complete control; read-out: Ducksalad plant response rating
Outline: as §2

[12] = test system: barnyardgrass (Echinochloa crus-galli); experiment: Test B flooded paddy test; details: Echinochloa crus-galli, Flood, 250 g ai/ha; scale of 0 to 100 where 0 is no effect and 100 is complete control; read-out: Barnyardgrass plant response rating
Outline: as §2

rice (Oryra sativa) = experiment: Test B flooded paddy test; details: Oryza sativa, Flood, 250 g ai/ha; scale of 0 to 100 where 0 is no effect and 100 is complete control; read-out: Rice plant response rating
Outline: as §2

Row | SMILES | plant injury at 125 g/ha [1] | pest or weed control at 125 g/ha [2] | pest or weed control at 125 g/ha (Kochia (Kochia scoparia)) | plant injury at 125 g/ha (corn (Zea mays)) | pest or weed control at 125 g/ha [3] | pest or weed control at 125 g/ha [4] | pest or weed control at 125 g/ha [5] | pest or weed control at 125 g/ha [6] | pest or weed control at 125 g/ha [7] | pest or weed control at 125 g/ha [8] | pest or weed control at 125 g/ha [9] | pest or weed control at 500 g/ha [9] | pest or weed control at 250 g/ha [10] | pest or weed control at 250 g/ha [11] | pest or weed control at 250 g/ha [12] | pest or weed control at 250 g/ha (rice (Oryra sativa))
1 | O=C1NCC(c2cccc(I)c2)C1C(=O)Nc1ccccc1F (stereo not drawn) [Compound 845] | 0% | 40% | 0% | 30% | 30% | 20% | 0% | 80% | 0% | 90% | 90% | 90% | 0% | 0% | 30% | 20%
2 | CC(C)(C)c1ccc([C@H]2CNC(=O)[C@@H]2C(=O)Nc2cccc(F)c2F)cc1 [Compound 847] | 0% | 0% | 0% | 0% | 0% | 0% | 0% | 0% | 0% | 0% | 0% | 60% | 0% | 90% | 0% | 0%
3 | COc1cc([C@H]2CN(C)C(=O)[C@@H]2C(=O)Nc2ccccc2SC)cc(C(F)(F)F)c1 [Compound 857] | 30% | 30% | 20% | 40% | 20% | 20% | 0% | 70% | 30% | 70% | 90% | 90% | 80% | 80% | 60% | 0%
4 | COc1cc(C(F)(F)F)ccc1[C@H]1CN(C)C(=O)[C@@H]1C(=O)Nc1ccccc1F [Compound 858] | 20% | 0% | 20% | 20% | 20% | 30% | 0% | 80% | 20% | 80% | 90% | 90% | 0% | 100% | 45% | 0%
5 | CSc1ccccc1NC(=O)[C@H]1C(=O)N(C)C[C@@H]1c1cccc(OC(F)(F)C(F)F)c1 [Compound 862] | 0% | 0% | 40% | 20% | 20% | 60% | 0% | 30% | 60% | 60% | 90% | 100% | 0% | 90% | 0% | 0%
6 | Cc1c(F)cccc1NC(=O)[C@H]1C(=O)N(C)C[C@@H]1c1cc(F)c(F)c(F)c1 [Compound 867] | 20% | 30% | 0% | 60% | 20% | 30% | 0% | 90% | 0% | 80% | 90% | 90% | 30% | 100% | 65% | 30%
7 | CN1C[C@H](c2cc(F)cc(F)c2)[C@@H](C(=O)Nc2ncc(C(F)(F)F)cc2F)C1=O [Compound 868] | 0% | 0% | 0% | 0% | 0% | 0% | 0% | 20% | 0% | 0% | 30% | 60% | 0% | 0% | 0% | 0%
8 | CN1C[C@H](c2cc(F)cc(F)c2)[C@@H](C(=O)Nc2ccccc2[S@@+](C)[O-])C1=O [Compound 872] | 20% | 20% | 50% | 30% | 0% | 50% | 0% | 90% | 30% | 80% | 90% | 100% | 40% | 85% | 0% | 0%
9 | CN1C[C@H](c2cccc(COC(F)F)c2)[C@@H](C(=O)Nc2ccccc2S(C)(=O)=O)C1=O [Compound 877] | 30% | 0% | 20% | 0% | 20% | 20% | 0% | 60% | 0% | 70% | 90% | 100% | 0% | 100% | 55% | 0%
